Reference: ChEMBL document CHEMBL1201862, “PubChem BioAssay data set” (2004)
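Method: 48-hour compound exposure of cells in 96-well plates, five concentrations, linear interpolation of endpoints. At the GI50, growth is halved.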 Calls of active or inactive are those of the source. Rule as the data show it: active = GI50 up to about 1.1 µM and inactive = higher.

Legend:
Assay in all cases: NCI-60 cell line screen, 48 h
786-0 = tested on: 786-0
A498 = tested on: A498
A549 = tested on: A549
ACHN = tested on: ACHN
BT-549 = tested on: BT-549
CAKI-1 = tested on: CAKI-1
CCRF-CEM = tested on: CCRF-CEM
COLO 205 = tested on: COLO 205
DLD-1 = tested on: DLD-1
DMS-114 = tested on: DMS-114
DMS-273 = tested on: DMS-273
DU-145 = tested on: DU-145
EKVX = tested on: EKVX
HCC 2998 = tested on: HCC 2998
HCT-116 = tested on: HCT-116
HCT-15 = tested on: HCT-15
HL-60 = tested on: HL-60
HOP-18 = tested on: HOP-18
HOP-62 = tested on: HOP-62
HOP-92 = tested on: HOP-92
HT-29 = tested on: HT-29
Hs-578T = tested on: Hs-578T
IGROV-1 = tested on: IGROV-1
K562 = tested on: K562
KM-20L2 = tested on: KM-20L2
KM12 = tested on: KM12
LOX IMVI = tested on: LOX IMVI
LXFL 529 = tested on: LXFL 529
M14 = tested on: M14
M19-MEL = tested on: M19-MEL
MCF7 = tested on: MCF7
MDA-MB-231 = tested on: MDA-MB-231
MDA-MB-435 = tested on: MDA-MB-435
MDA-N = tested on: MDA-N
MOLT-4 = tested on: MOLT-4
Malme-3M = tested on: Malme-3M
NCI-H226 = tested on: NCI-H226
NCI-H23 = tested on: NCI-H23
NCI-H460 = tested on: NCI-H460
NCI-H522 = tested on: NCI-H522
NCI/ADR-RES = tested on: NCI/ADR-RES
OVCAR-3 = tested on: OVCAR-3
OVCAR-4 = tested on: OVCAR-4
OVCAR-5 = tested on: OVCAR-5
OVCAR-8 = tested on: OVCAR-8
PC-3 = tested on: PC-3
RPMI-8226 = tested on: RPMI-8226
RXF 393 = tested on: RXF 393
RXF 631 = tested on: RXF 631
SF-268 = tested on: SF-268
SF-295 = tested on: SF-295
SF-539 = tested on: SF-539
SK-MEL-28 = tested on: SK-MEL-28
SK-MEL-2 = tested on: SK-MEL-2
SK-MEL-5 = tested on: SK-MEL-5
SK-OV-3 = tested on: SK-OV-3
SN12C = tested on: SN12C
SNB-19 = tested on: SNB-19
SNB-75 = tested on: SNB-75
SNB-78 = tested on: SNB-78
SR = tested on: SR
SW-620 = tested on: SW-620
T47D = tested on: T47D
U-251 = tested on: U-251
UACC-257 = tested on: UACC-257
UACC-62 = tested on: UACC-62
UO-31 = tested on: UO-31
TK-10 = tested on: TK-10
XF498 = tested on: XF498

CC(C)Cc1ccc(C(C)CC2=CCC(CN(C)C)C2=O)cc1 (stereo not given)
GI50 (786-0): 1.79 µM (inactive)
GI50 (A498): 18.5 µM (inactive)
GI50 (A549): 18.3 µM (inactive)
GI50 (ACHN): 16.7 µM (inactive)
GI50 (BT-549): 19.5 µM (inactive)
GI50 (CAKI-1): 1.84 µM (inactive)
GI50 (CCRF-CEM): 2.4 µM (inactive)
GI50 (COLO 205): 2.69 µM (inactive)
GI50 (DLD-1): 2.33 µM (inactive)
GI50 (DMS-114): 4.27 µM (inactive)
GI50 (DMS-273): 4.41 µM (inactive)
GI50 (DU-145): 16.6 µM (inactive)
GI50 (EKVX): 16.4 µM (inactive)
GI50 (HCC 2998): 5.19 µM (inactive)
GI50 (HCT-116): 4.17 µM (inactive)
GI50 (HCT-15): 2.64 µM
GI50 (HL-60): 1.96 µM (inactive)
GI50 (HOP-18): 18.5 µM (inactive)
GI50 (HOP-62): 21.1 µM (inactive)
GI50 (HOP-92): 2.95 µM (inactive)
GI50 (HT-29): 6.38 µM (inactive)
GI50 (Hs-578T): 18.3 µM (inactive)
GI50 (IGROV-1): 9.51 µM (inactive)
GI50 (K562): 2.25 µM (inactive)
GI50 (KM-20L2): 11.4 µM (inactive)
GI50 (KM12): 3.13 µM (inactive)
GI50 (LOX IMVI): 4.97 µM (inactive)
GI50 (LXFL 529): 1.73 µM (inactive)
GI50 (M14): 4.7 µM (inactive)
GI50 (M19-MEL): 4.11 µM (inactive)
GI50 (MCF7): 1.17 µM (inactive)
GI50 (MDA-MB-231): 10.5 µM (inactive)
GI50 (MDA-MB-435): 8.13 µM (inactive)
GI50 (MDA-N): 5.75 µM (inactive)
GI50 (MOLT-4): 2.34 µM (inactive)
GI50 (Malme-3M): 6.15 µM (inactive)
GI50 (NCI-H226): 16.7 µM (inactive)
GI50 (NCI-H23): 12.9 µM (inactive)
GI50 (NCI-H460): 31.7 µM (inactive)
GI50 (NCI-H522): 4.06 µM (inactive)
GI50 (NCI/ADR-RES): 16.9 µM (inactive)
GI50 (OVCAR-3): 11.2 µM (inactive)
GI50 (OVCAR-4): 20.4 µM (inactive)
GI50 (OVCAR-5): 16.1 µM (inactive)
GI50 (OVCAR-8): 7.41 µM (inactive)
GI50 (PC-3): 14.9 µM (inactive)
GI50 (RPMI-8226): 0.333 µM (active)
GI50 (RXF 393): 5.78 µM (inactive)
GI50 (RXF 631): 16.6 µM (inactive)
GI50 (SF-268): 14.9 µM (inactive)
GI50 (SF-295): 17.1 µM (inactive)
GI50 (SF-539): 16.3 µM (inactive)
GI50 (SK-MEL-28): 9.31 µM (inactive)
GI50 (SK-MEL-2): 13.2 µM (inactive)
GI50 (SK-MEL-5): 15.3 µM (inactive)
GI50 (SK-OV-3): 17.6 µM (inactive)
GI50 (SN12C): 9.1 µM (inactive)
GI50 (SNB-19): 15.3 µM (inactive)
GI50 (SNB-75): 15.8 µM (inactive)
GI50 (SNB-78): 6.43 µM (inactive)
GI50 (SR): 1.86 µM (inactive)
GI50 (SW-620): 2.12 µM (inactive)
GI50 (T47D): 1.86 µM (inactive)
GI50 (U-251): 6.34 µM (inactive)
GI50 (UACC-257): 13.5 µM (inactive)
GI50 (UACC-62): 10 µM (inactive)
GI50 (UO-31): 16.4 µM (inactive)

Cn1cnnc1Sc1c([N+](=O)[O-])nc(-c2ccc([N+](=O)[O-])cc2)n1C
GI50 (786-0): 17.7 µM (inactive)
GI50 (A498): > 100 µM (inactive)
GI50 (A549): > 100 µM (inactive)
GI50 (ACHN): 18.6 µM (inactive)
GI50 (CAKI-1): 32.7 µM (inactive)
GI50 (CCRF-CEM): 10.3 µM (inactive)
GI50 (COLO 205): 14.9 µM (inactive)
GI50 (DLD-1): 15.3 µM (inactive)
GI50 (DMS-114): 17.9 µM (inactive)
GI50 (DMS-273): 17.4 µM (inactive)
GI50 (EKVX): 27.5 µM (inactive)
GI50 (HCC 2998): 17.5 µM (inactive)
GI50 (HCT-116): 15.1 µM (inactive)
GI50 (HOP-18): 17.4 µM (inactive)
GI50 (HOP-62): > 100 µM (inactive)
GI50 (HOP-92): 19.4 µM (inactive)
GI50 (HT-29): 18.4 µM (inactive)
GI50 (IGROV-1): 17.5 µM (inactive)
GI50 (K562): 18 µM (inactive)
GI50 (KM12): 20.5 µM (inactive)
GI50 (LOX IMVI): 13.6 µM (inactive)
GI50 (LXFL 529): 13.8 µM (inactive)
GI50 (M14): 16.4 µM (inactive)
GI50 (M19-MEL): 17.8 µM (inactive)
GI50 (MOLT-4): 14.6 µM (inactive)
GI50 (Malme-3M): 14.9 µM (inactive)
GI50 (NCI-H226): 20.9 µM (inactive)
GI50 (NCI-H23): 18.2 µM (inactive)
GI50 (NCI-H460): 36.1 µM (inactive)
GI50 (NCI-H522): 6.1 µM (inactive)
GI50 (OVCAR-3): 17 µM (inactive)
GI50 (OVCAR-4): 16.1 µM (inactive)
GI50 (OVCAR-5): 27.7 µM (inactive)
GI50 (OVCAR-8): 18.1 µM (inactive)
GI50 (RPMI-8226): 16.1 µM (inactive)
GI50 (RXF 631): 17.7 µM (inactive)
GI50 (SF-268): 16.9 µM (inactive)
GI50 (SF-295): > 100 µM (inactive)
GI50 (SF-539): 16.7 µM (inactive)
GI50 (SK-MEL-28): 16 µM (inactive)
GI50 (SK-MEL-2): 15.1 µM (inactive)
GI50 (SK-MEL-5): 16.9 µM (inactive)
GI50 (SK-OV-3): > 100 µM (inactive)
GI50 (SN12C): 16.1 µM (inactive)
GI50 (SNB-19): > 100 µM (inactive)
GI50 (SNB-75): 31.3 µM (inactive)
GI50 (SNB-78): 18.3 µM (inactive)
GI50 (SR): 16.2 µM (inactive)
GI50 (SW-620): 16.1 µM (inactive)
GI50 (TK-10): 18.7 µM (inactive)
GI50 (U-251): 16.6 µM (inactive)
GI50 (UACC-257): 16 µM (inactive)
GI50 (UACC-62): 16.5 µM (inactive)
GI50 (UO-31): 14.7 µM (inactive)
GI50 (XF498): 10.4 µM (inactive)

O=S(O)CCCCCSSc1ccc(Cl)cc1
GI50 (A498): 17 µM (inactive)
GI50 (CCRF-CEM): 4.49 µM (inactive)
GI50 (DLD-1): 21.5 µM (inactive)
GI50 (EKVX): 39.1 µM (inactive)
GI50 (HCC 2998): 25.9 µM (inactive)
GI50 (HCT-116): 25.2 µM (inactive)
GI50 (HL-60): 27.2 µM (inactive)
GI50 (HOP-62): 22.4 µM (inactive)
GI50 (HT-29): 26.6 µM (inactive)
GI50 (K562): > 100 µM (inactive)
GI50 (KM12): 20.7 µM (inactive)
GI50 (LOX IMVI): 16.4 µM (inactive)
GI50 (LXFL 529): 13.7 µM (inactive)
GI50 (M14): 22.7 µM (inactive)
GI50 (M19-MEL): 28.4 µM (inactive)
GI50 (Malme-3M): 23 µM (inactive)
GI50 (NCI-H23): 19.8 µM (inactive)
GI50 (NCI-H460): 36.9 µM (inactive)
GI50 (NCI-H522): 14.9 µM (inactive)
GI50 (OVCAR-3): 15.6 µM (inactive)
GI50 (OVCAR-4): 28.7 µM (inactive)
GI50 (OVCAR-5): 21.1 µM (inactive)
GI50 (RXF 393): 13.8 µM (inactive)
GI50 (RXF 631): 18.9 µM (inactive)
GI50 (SF-268): 10.7 µM (inactive)
GI50 (SF-539): 16 µM (inactive)
GI50 (SK-MEL-28): 21.6 µM (inactive)
GI50 (SK-MEL-2): 15.2 µM (inactive)
GI50 (SK-OV-3): 56 µM (inactive)
GI50 (SN12C): 16 µM (inactive)
GI50 (SNB-19): 28 µM (inactive)
GI50 (SNB-75): 23.1 µM (inactive)
GI50 (SNB-78): 23.5 µM (inactive)
GI50 (TK-10): 23.2 µM (inactive)
GI50 (U-251): 10.1 µM (inactive)
GI50 (UACC-257): 22.5 µM (inactive)
GI50 (UO-31): 12.9 µM (inactive)
GI50 (XF498): 13.7 µM (inactive)
